Experimental data: patent publication US20250332173A1, “COMPOUNDS AND METHODS FOR MODULATING NUCLEIC ACID SPLICING” (REMIX THERAPEUTICS INC., priority 2021, published 2025)
Where two headings read alike, the source gives them in different places.

Assays:
[1] = system: K562 (human chronic myelogenous leukemia) cells; test: Cell Titer Glo 2.0 cell viability assay; format: cell-based; conditions: Homo sapiens, K562, 72 h, K562 cells, 72 hours, Cell Titer Glo 2.0; read-out: K562 GI50
SMN2 mRNA = test: RT-qPCR splicing assay, SMN2 canonical junction (CJ) mRNA; format: cell-based, human; conditions: Homo sapiens
Outline: (§1)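 Cells are plated (A673 allowed 24 h to adhere), dosed with an 11-point 3-fold series topping at 10 uM final, and incubated 24 h at 37 °C. Lysis is followed by cDNA synthesis and qPCR of the CJ transcript, normalized to a housekeeping gene.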

Target C [2] = test: RT-qPCR splicing assay panel, Target C canonical junction (CJ) mRNA; format: cell-based, human; conditions: Homo sapiens
Outline: as §1

Target C [3] = test: HiBiT protein abundance assay, Target C (Promega Nano-Glo HiBiT Lytic Detection System, knock-in K562 cell line); format: cell-based, human; conditions: Homo sapiens, K562, 24 h, HiBiT K562 cell line, 24 hours, top dose 10 μM; read-out: Effect on protein abundance, Target C (IC50 category)
Outline: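 Protein abundance was read by Nano-Glo HiBiT lytic luminescence after 24 h compound exposure (10-point, threefold series from 10 μM final) of HiBiT knock-in K562 cells. Parental K562 served as baseline; the 50%-abundance concentration was interpolated from a four-parameter logistic fit.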

[4] = canonical junction qPCR panel, Table 5, read-out: SMN2 (decrease in CJ mRNA levels, IC50)
[5] = canonical junction qPCR panel, Table 5, read-out: Target C (decrease in CJ mRNA levels, IC50)
[6] = Table 5 panel, canonical junction qPCR, compound concentration having 50% response in CJ decrease, read-out: SMN2 IC50 (decrease in CJ mRNA levels)
[7] = Table 5 panel, canonical junction qPCR, compound concentration having 50% response in CJ decrease, read-out: Target C IC50 (decrease in CJ mRNA levels)

SMILES	GI50 [1]	IC50 (SMN2 mRNA; [4])	IC50 (Target C [2]; [5])	IC50 (Target C [3])	IC50 (SMN2 mRNA; [6])	IC50 (Target C [2]; [7])
Cc1cn2nc(-c3ccc4c(=O)n(C5CCNCC5)ncc4n3)cc(C)c2n1 [Compound 1247]	100 to 1000 nM	< 100 nM	100 to 1000 nM			
Cc1c(O)c(-c2ncc3c(=O)n([C@@H]4C[C@H]5C[C@@H]4CN5)ccc3n2)cc2cn(C)nc12 [Compound 1445, 6-[(1R,4R,5R)-2-azabicyclo[2.2.1]heptan-5-yl]-2(6-hydroxy-2,7-dimethyl-indazol-5-yl)pyrido[4,3-d]pyrimidin-5-one]	1000 to 10000 nM	100 to 1000 nM	> 10000 nM	> 10000 nM		
Cn1cc2cc(-c3ccc4c(=O)n(C5CCNC6(CC6)C5)ncc4n3)c(O)cc2n1 (stereo not drawn) [Compound 1306]	100 to 1000 nM	< 100 nM	100 to 1000 nM			
Cc1cc(-c2cc3ccn(C4CCN(C)CC4)c(=O)c3cn2)cc2cn(C)nc12 [Compound 1206, 6-(2,7-dimethyl-2H-indazol-5-yl)-2-(1-methylpiperidin-4-yl)-2,7-naphthyridin-1(2H)-one]	1000 to 10000 nM			> 10000 nM	< 100 nM	> 10000 nM
Cc1c(O)c(-c2ncc3c(=O)n(C4CCNC4)ccc3n2)cc2cn(C)nc12 (stereo not drawn) [Compound 1222]	1000 to 10000 nM			> 10000 nM	< 100 nM	> 10000 nM
Cc1cn2cc(-c3ncc4c(=O)n(C5CCNC5)ccc4n3)cc(C#N)c2n1 (stereo not drawn) [Compound 1221]	100 to 1000 nM			100 to 1000 nM	100 to 1000 nM	100 to 1000 nM
Cn1cc2cc(-c3ccc4c(=O)n(C5CCNCC5)ccc4n3)cc(F)c2n1 [Compound 1231]	100 to 1000 nM	< 100 nM	100 to 1000 nM	100 to 1000 nM		
Cn1cc2cc(-c3cc4ccn(C5CCNCC5)c(=O)c4cn3)c(O)c(F)c2n1 [Compound 1199]	1000 to 10000 nM			1000 to 10000 nM	< 100 nM	1000 to 10000 nM
Cc1cn2nc(-c3ccc4c(=O)n(C5CCNCC5)ncc4c3)cc(C)c2n1 [Compound 186]	100 to 1000 nM			100 to 1000 nM	< 100 nM	100 to 1000 nM
Cc1cn2cc(-c3cc4ccn(C5CCNC5)c(=O)c4cn3)cc(C#N)c2n1 (stereo not drawn) [Compound 1214]	1000 to 10000 nM			> 10000 nM	100 to 1000 nM	> 10000 nM
CCN1CCC(n2ncc3nc(-c4cc(C)c5nc(C)cn5n4)ccc3c2=O)CC1 [Compound 1308]	100 to 1000 nM	< 100 nM	100 to 1000 nM			
CCN1CCC(n2ncc3nc(-c4cc5cn(C)nc5cc4O)ccc3c2=O)CC1 [Compound 1310]	100 to 1000 nM	100 to 1000 nM	1000 to 10000 nM			
Cc1cn2nc(-c3ccc4c(=O)n([C@@H]5CCNC5)ccc4n3)cc(C)c2n1 [Compound 1438, 2-(2,8-dimethylimidazo[1,2-b]pyridazin-6-yl)-6-[(3R)-pyrrolidin-3-yl]-1,6-naphthyridin-5-one]	1000 to 10000 nM	< 100 nM	1000 to 10000 nM	1000 to 10000 nM		
Cc1cn2nc(-c3ccc4c(=O)n(C5CCN(CCF)CC5)ncc4n3)cc(C)c2n1 [Compound 1309]	100 to 1000 nM	< 100 nM	100 to 1000 nM			
Cc1c(O)c(-c2ncc3c(=O)n(C4CCNC4)ccc3n2)cc2cn(C)nc12 (stereo in doubt) [Compound 1440, (6S)-2-(6-hydroxy-2,7-dimethyl-indazol-5-yl)-6-pyrrolidin-3-yl-pyrido[4,3-d]pyrimidin-5-one]	100 to 1000 nM	< 100 nM	> 10000 nM	> 10000 nM		
Cc1cn2cc(-c3cc(O)c4c(=O)n(C5CCNCC5)ccc4n3)cc(F)c2n1 [Compound 1448]	100 to 1000 nM	< 100 nM	1000 to 10000 nM	100 to 1000 nM		
Cn1cc2cc(-c3ncc4c(=O)n(C5CCNC5)ccc4n3)c(O)c(F)c2n1 (stereo not drawn) [Compound 1223]	1000 to 10000 nM			1000 to 10000 nM	< 100 nM	1000 to 10000 nM
Cc1cn2nc(-c3ccc4c(=O)n(C5CCN(C)CC5)ncc4n3)cc(C)c2n1 [Compound 1311]	100 to 1000 nM	< 100 nM	100 to 1000 nM			
CN1CCC(n2ncc3nc(-c4cc5cn(C)nc5cc4O)ccc3c2=O)CC1 [Compound 1307]	1000 to 10000 nM	100 to 1000 nM	1000 to 10000 nM			
